# Assays:
# Format in all cases: in vivo
# [1] = tested on: velvetleaf (Abutilon theophrasti Medic.); assay: Test Example 14: pot test, soil and foliar treatment, visual growth inhibition; settings: soil treatment and foliar treatment, 31st day after treatment, read-out: Growth inhibition rate (%) of velvetleaf Measured value
# Excerpt: Upland field soil was put into a 1/1,000,000 ha pot, and seeds of velvetleaf (Abutilon theophrasti Medic.) were sown. When the velvetleaf reached 4.0 to 4.3-leaf stage, seeds of velvetleaf were further sown in the same pot assuming conditions such that weeds would later grow. On the next day, predetermined amounts of ONEHOPE NYUZAI (tradename), Click (tradename), Callisto (tradename), Mikado (tradename), a wettable powder containing bicyclopyrone as an active ingredient and Clio (tradename) were diluted with water in an amount corresponding to 300 L/ha and applied for soil treatment and for foliar treatment by a small sprayer.
# (§1) On the 31 st day after treatment, the state of growth of the velvetleaf was visually observed to determine the growth inhibition rate (%). The growth inhibition rate (%) (measured value) and the growth inhibition rate (%) calculated in the same manner as in the above Test Example 1 are shown in Table 14.
# [2] = tested on: Japanese millet (Echinochloa utilis Ohwi et Yabuno); assay: Test Example 9: pot test, soil treatment, visual growth inhibition; settings: soil treatment, 28th day after treatment, read-out: Growth inhibition rate (%) of Japanese millet Measured value
# Description: Upland field soil was put into a 1/300,000 ha pot, and seeds of Japanese millet (Echinochloa utilis Ohwi et Yabuno) were sown. On the next day, predetermined amounts of ONEHOPE NYUZAI (tradename), Click (tradename), Mikado (tradename) and a wettable powder containing bicyclopyrone prepared in accordance with a conventional formulation method were diluted with water (in an amount corresponding to 1,000 L/ha) and applied for soil treatment by a small sprayer.
# as §1, with “28th” for “31 st”, “Japanese millet” for “velvetleaf”, “9.” for “14.”
# [3] = tested on: prickly sida (Sida spinosa L.); assay: Test Example 10: pot test, soil treatment, visual growth inhibition; settings: soil treatment, 28th day after treatment, read-out: Growth inhibition rate (%) of prickly sida Measured value
# Description: Upland field soil was put into a 1/300,000 ha pot, and seeds of prickly sida (Sida spinosa L.) were sown. On the next day, predetermined amounts of ONEHOPE NYUZAI (tradename), Click (tradename), Spectrum (tradename), Callisto (tradename) and Clio (tradename) were diluted with water (in an amount corresponding to 1,000 L/ha) and applied for soil treatment by a small sprayer.
# as §1, with “28th” for “31 st”, “prickly sida” for “velvetleaf”, “10.” for “14.”
SMILES,inhibition at 400 g/ha ([1]; 400 g/ha) [%],inhibition at 1200 g/ha ([1]; 1200 g/ha) [%],inhibition at 2000 g/ha ([2]; 2000 g/ha) [%],inhibition at 200 g/ha ([3]; 200 g/ha) [%],inhibition at 2000 g/ha ([3]; 2000 g/ha) [%],inhibition at 20 g/ha ([1]; 20 g/ha) [%],inhibition at 60 g/ha ([1]; 60 g/ha) [%],inhibition at 10 g/ha ([2]; 10 g/ha) [%],inhibition at 10 g/ha ([3]; 10 g/ha) [%],inhibition at 100 g/ha ([3]; 100 g/ha) [%]
"CCNc1nc(Cl)nc(NC(C)(C)C)n1 [Terbuthylazine, N^2-tert-butyl-6-chloro-N^4-ethyl-1,3,5-triazine-2,4-diamine]",0,0,65,30,80,–,–,–,–,–
"COc1cc(OC)nc(NC(=O)NS(=O)(=O)c2ncccc2C(=O)N(C)C)n1 [Nicosulfuron, 2-(4,6-dimethoxypyrimidin-2-ylcarbamoylsulfamoyl)-N,N-dimethylnicotinamide]",–,–,–,–,–,3,11,0,20,40

# Source: EP2832223A1, “HERBICIDAL COMPOSITION” (Ishihara Sangyo Kaisha, Ltd., priority 2012, dated 2013)
